This is an account of results in patent US20110165119A1, “TELAPREVIR DOSING REGIMEN” (priority 2008, published 2011).

One data set addresses T1, HCV NS3-4A protease (Hepatitis C virus genotype 1a, UniProt P27958).
T1 construct: against the HCV NS3-4A protease
Put plainly: in vitro potency against HCV NS3-4A protease. In kind it is biochemical. The following applies: relative to telaprevir.

The conditions of data set [1]: in vivo; cited from earlier work.

T1 sequence (P27958 1027-1657): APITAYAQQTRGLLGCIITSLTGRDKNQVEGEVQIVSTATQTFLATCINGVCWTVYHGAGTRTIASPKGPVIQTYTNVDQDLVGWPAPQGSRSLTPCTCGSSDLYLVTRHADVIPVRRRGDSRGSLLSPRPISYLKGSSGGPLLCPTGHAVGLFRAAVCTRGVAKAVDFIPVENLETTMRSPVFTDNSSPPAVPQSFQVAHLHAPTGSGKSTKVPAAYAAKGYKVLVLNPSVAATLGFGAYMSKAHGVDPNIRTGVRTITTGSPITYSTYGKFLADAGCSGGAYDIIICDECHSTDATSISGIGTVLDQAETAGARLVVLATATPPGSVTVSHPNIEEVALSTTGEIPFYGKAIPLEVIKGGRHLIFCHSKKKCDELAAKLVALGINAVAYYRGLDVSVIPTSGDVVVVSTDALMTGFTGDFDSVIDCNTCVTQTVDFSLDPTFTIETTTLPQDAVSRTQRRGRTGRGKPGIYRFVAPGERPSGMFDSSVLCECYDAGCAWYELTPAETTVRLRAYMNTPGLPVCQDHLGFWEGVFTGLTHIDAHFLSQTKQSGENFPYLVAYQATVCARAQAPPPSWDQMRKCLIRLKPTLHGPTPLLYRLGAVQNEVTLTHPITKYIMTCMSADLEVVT
T1 sequence (P27958 1658-1711): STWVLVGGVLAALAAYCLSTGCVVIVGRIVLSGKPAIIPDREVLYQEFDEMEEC

As for `CCCC(NC(=O)C1C2CCCC2CN1C(=O)C(NC(=O)C(NC(=O)c1cnccn1)C1CCCCC1)C(C)(C)C)C(=O)C(=O)NC1CC1` (single isomer, unassigned) [R-diastereisomer], the “times less potent than telaprevir against the HCV NS3-4A protease” value at HCV NS3-4A protease was “about 30 times”. As for `CCC[C@H](NC(=O)[C@@H]1[C@H]2CCC[C@H]2CN1C(=O)[C@@H](NC(=O)[C@@H](NC(=O)c1cnccn1)C1CCCCC1)C(C)(C)C)C(=O)C(=O)NC1CC1` (single isomer, unassigned) [Telaprevir], the oral bioavailability entry in data set [1] is on record as “orally bioavailable”.
